In US11524968B2, “Heterocyclic compound as a protein kinase inhibitor” (HK inno.N Corporation, priority 2017, dated 2022):
pIC50: −log10 of the molar value.

Target: JAK1 (Homo sapiens (Human), UniProt P23458)
Experiment: Analysis of JAK1 activity inhibition ability (ADP-Glo Kinase Assay)
Assay type: biochemical
Conditions: JAK1 enzyme, ADP-Glo luminescence, ATP 250 uM, IRS-itide substrate, 30° C. 40 minutes; read-out: IC50
Summary of the method: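 JAK1 enzyme, IRS-itide substrate (40 ng/mL) and 250 uM ATP, both as prepared in kinase buffer (Tris-HCl pH 7.5, MgCl2, BSA, DTT), reacted with compound 40 min at 30 °C. ADP formed was detected by ADP-Glo luminescence; IC50 is the concentration giving 50% inhibition versus control.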

JAK1, sequence (P23458 whole entry): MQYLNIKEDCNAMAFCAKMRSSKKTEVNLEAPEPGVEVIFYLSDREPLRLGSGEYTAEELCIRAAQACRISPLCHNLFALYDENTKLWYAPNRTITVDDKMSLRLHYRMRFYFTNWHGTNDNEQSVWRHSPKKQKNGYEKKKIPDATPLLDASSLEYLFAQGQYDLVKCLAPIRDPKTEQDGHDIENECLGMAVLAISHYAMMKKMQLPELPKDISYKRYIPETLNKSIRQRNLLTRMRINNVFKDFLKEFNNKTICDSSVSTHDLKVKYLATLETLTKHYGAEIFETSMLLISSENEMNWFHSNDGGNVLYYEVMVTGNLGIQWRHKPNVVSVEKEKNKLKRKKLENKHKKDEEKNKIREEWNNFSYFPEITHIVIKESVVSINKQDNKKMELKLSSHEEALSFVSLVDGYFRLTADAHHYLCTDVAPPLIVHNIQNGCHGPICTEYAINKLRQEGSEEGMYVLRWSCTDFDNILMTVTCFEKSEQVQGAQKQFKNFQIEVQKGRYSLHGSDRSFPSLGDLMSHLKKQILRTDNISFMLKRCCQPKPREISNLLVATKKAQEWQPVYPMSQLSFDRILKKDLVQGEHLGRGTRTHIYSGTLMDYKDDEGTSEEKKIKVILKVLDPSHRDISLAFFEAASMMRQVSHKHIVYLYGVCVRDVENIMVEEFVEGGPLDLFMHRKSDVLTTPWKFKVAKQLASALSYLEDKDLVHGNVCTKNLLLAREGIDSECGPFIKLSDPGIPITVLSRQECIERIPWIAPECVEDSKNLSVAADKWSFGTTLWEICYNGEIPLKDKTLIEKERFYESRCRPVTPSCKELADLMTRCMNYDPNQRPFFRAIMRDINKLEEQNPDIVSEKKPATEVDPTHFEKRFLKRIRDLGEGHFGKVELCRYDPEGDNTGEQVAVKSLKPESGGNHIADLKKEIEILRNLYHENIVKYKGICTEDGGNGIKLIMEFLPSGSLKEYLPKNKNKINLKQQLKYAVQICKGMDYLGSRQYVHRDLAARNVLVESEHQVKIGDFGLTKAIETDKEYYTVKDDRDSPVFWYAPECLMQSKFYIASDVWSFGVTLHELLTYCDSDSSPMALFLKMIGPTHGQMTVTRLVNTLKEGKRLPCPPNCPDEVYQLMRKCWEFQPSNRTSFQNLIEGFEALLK

Compound | pIC50
O=C(Nc1cc(-c2ccc(OCCN3CCOCC3)cc2)c2cc[nH]c2n1)C1CC1 [Example 642, N-(4-(4-(2-morpholinoethoxy)phenyl)-1H-pyrrolo[2,3-b]pyridin-6-yl)cyclopropanecarboxamide] | 6.70 to 7.70
CCCCS(=O)(=O)Nc1ccc(-c2cc(NC(=O)C3CC3)nc3[nH]ccc23)cc1F [Example 67, N-(4-(4-(butylsulfonamido)-3-fluorophenyl)-1H-pyrrolo[2,3-b]pyridin-6-yl)cyclopropanecarboxamide] | > 7.70
O=C(Nc1cc(-c2ccc(NS(=O)(=O)c3cccc(F)c3)cc2C(F)(F)F)c2cc[nH]c2n1)C1CC1 [Example 122, N-(4-(4-((3-fluorophenyl)sulfonamido)-2-(trifluoromethyl)phenyl)-1H-pyrrolo[2,3-b]pyridin-6-yl)cyclopropanecarboxamide] | 6.70 to 7.70
O=C(Nc1cc(C2=CCN(C(=O)CC(F)(F)F)CC2)c2cc[nH]c2n1)C1CC1 [Example 253, N-(4-(1-(3,3,3-trifluoropropanoyl)-1,2,3,6-tetrahydropyridin-4-yl)-1H-pyrrolo[2,3-b]pyridin-6-yl)cyclopropanecarboxamide] | 6.70 to 7.70
O=C(Nc1cc(-c2ccc(NC3CCN(C(=O)NCC(F)(F)F)CC3)c(F)c2)c2cc[nH]c2n1)C1CC1 [Example 505, 4-((4-(6-(cyclopropanecarboxamido)-1H-pyrrolo[2,3-b]pyridin-4-yl)-2-fluorophenyl)amino)-N-(2,2,2-trifluoroethyl)piperidine-1-carboxamide] | 6.70 to 7.70
N#CCC(=O)N1C[C@H]2C[C@@H]1CN2c1cc(NC(=O)C2CC2)nc2[nH]ccc12 [Example 681, N-(4-((1R,4R)-5-(2-cyanoacetyl)-2,5-diazabicyclo[2.2.1]heptan-2-yl)-1H-pyrrolo[2,3-b]pyridin-6-yl)cyclopropanecarboxamide] | < 6.70
Cc1cc(C(=O)N2CC=C(c3cc(NC(=O)C4CC4)nc4[nH]ccc34)C(C)C2)ccn1 (stereo not drawn) [Example 379, N-(4-(3-methyl-1-(2-methylisonicotinoyl)-1,2,3,6-tetrahydropyridin-4-yl)-1H-pyrrolo[2,3-b]pyridin-6-yl)cyclopropanecarboxamide] | 6.70 to 7.70
CCc1cc(NS(=O)(=O)C2CCCCC2)ccc1-c1cc(NC(=O)C2CC2)nc2[nH]ccc12 [Example 112, N-(4-(4-(cyclohexanesulfonamido)-2-ethylphenyl)-1H-pyrrolo[2,3-b]pyridin-6-yl)cyclopropanecarboxamide] | 6.70 to 7.70
CCCCC(=O)N1C2CCC1CC(c1cc(NC(=O)C3CC3)nc3[nH]ccc13)C2 (stereo not drawn) [Example 651, N-(4-(8-pentanoyl-8-azabicyclo[3.2.1]octan-3-yl)-1H-pyrrolo[2,3-b]pyridin-6-yl)cyclopropanecarboxamide] | < 6.70
O=C(Nc1cc(-c2ccc(C(F)(F)C(=O)N3CCOCC3)cc2)c2cc[nH]c2n1)C1CC1 [Example 572, N-(4-(4-(1,1-difluoro-2-morpholino-2-oxoethyl)phenyl)-1H-pyrrolo[2,3-b]pyridin-6-yl)cyclopropanecarboxamide] | 6.70 to 7.70
CCCS(=O)(=O)Nc1ccc(-c2cc(NC(=O)C3CC3)nc3[nH]ccc23)c(C(F)(F)F)c1 [Example 119, N-(4-(4-(propylsulfonamido)-2-(trifluoromethyl)phenyl)-1H-pyrrolo[2,3-b]pyridin-6-yl)cyclopropanecarboxamide] | 6.70 to 7.70
CC(C)(C)OC(=O)N1CCC(c2cc(NC(=O)C3CC3)nc3[nH]ccc23)C(O)C1 (stereo not drawn) [Example 655, tert-butyl 4-(6-(cyclopropanecarboxamido)-1H-pyrrolo[2,3-b]pyridin-4-yl)-3-hydroxypiperidine-1-carboxylate] | < 6.70
N#CCCn1cc(-c2cc(NC(=O)C3CC3)nc3[nH]ccc23)cn1 [Example 477, N-(4-(1-(2-cyanoethyl)-1H-pyrazol-4-yl)-1H-pyrrolo[2,3-b]pyridin-6-yl)cyclopropanecarboxamide] | > 7.70
N#CCC(=O)N1CCN(c2cc(NC(=O)C3CC3)nc3[nH]ccc23)CC1 [Example 676, N-(4-(4-(2-cyanoacetyl)piperazin-1-yl)-1H-pyrrolo[2,3-b]pyridin-6-yl)cyclopropanecarboxamide] | < 6.70
N#CCC(=O)Nc1ccc(-c2cc(NC(=O)C3CC3)nc3[nH]ccc23)cc1 [Example 239, N-(4-(4-(2-cyanoacetamido)phenyl)-1H-pyrrolo[2,3-b]pyridine-6-yl)cyclopropanecarboxamide] | 6.70 to 7.70
CCCS(=O)(=O)Nc1ccc(-c2cc(NC(=O)C3CC3)nc3[nH]ccc23)cc1Cl [Example 63, N-(4-(3-chloro-4-(propylsulfonamido)phenyl)-1H-pyrrolo[2,3-b]pyridin-6-yl)cyclopropanecarboxamide] | 6.70 to 7.70
CC1CN(C(=O)c2ccncc2F)CC=C1c1cc(NC(=O)C2CC2)nc2[nH]ccc12 (stereo not drawn) [Example 314, N-(4-(1-(3-fluoroisonicotinoyl)-3-methyl-1,2,3,6-tetrahydropyridin-4-yl)-1H-pyrrolo[2,3-b]pyridin-6-yl)cyclopropanecarboxamide] | 6.70 to 7.70

Compound | pIC50
O=C(Nc1cc(C2=CCC(NC3CCN(C(=O)c4ccc([N+](=O)[O-])cc4)CC3)CC2)c2cc[nH]c2n1)C1CC1 (stereo not drawn) [Example 494, N-(4-(4-((1-(4-nitrobenzoyl)piperidin-4-yl)amino)cyclohex-1-en-1-yl)-1H-pyrrolo[2,3-b]pyridin-6-yl)cyclopropanecarboxamide] | < 6.70
CCCNC(=S)Nc1ccc(-c2nc(NC(=O)C3CC3)nc3[nH]ccc23)cc1 [Example 467, N-(4-(4-(3-propylthioureido)phenyl)-7H-pyrrolo[2,3-d]pyrimidin-2-yl)cyclopropanecarboxamide] | 6.70 to 7.70
CCS(=O)(=O)Nc1ccc(-c2cc(NC(C)=O)nc3[nH]ccc23)cc1F [Example 710, N-(4-(4-(ethylsulfonamido)-3-fluorophenyl)-1H-pyrrolo[2,3-b]pyridin-6-yl)acetamide] | 6.70 to 7.70
CC(C)(C)OC(=O)N1C2CCC1CN(c1nc(NC(=O)C3CC3)nc3[nH]ccc13)C2 [Example 695, tert-butyl 3-(2-(cyclopropanecarboxamido)-7H-pyrrolo[2,3-d]pyrimidin-4-yl)-3,8-diazabicyclo[3.2.1]octane-8-carboxylate] | 6.70 to 7.70
Cc1cc(NC(=O)NCC(F)(F)F)ccc1-c1cc(NC(=O)C2CC2)nc2[nH]ccc12 [Example 436, N-(4-(2-methyl-4-(3-(2,2,2-trifluoroethyl)ureido)phenyl)-1H-pyrrolo[2,3-b]pyridin-6-yl)cyclopropanecarboxamide] | 6.70 to 7.70
N#CCNC(=O)c1ccc(-c2cc(NC(=O)C3CC3)nc3[nH]ccc23)cc1 [Example 523, N-(cyanomethyl)-4-(6-(cyclopropanecarboxamido)-1H-pyrrolo[2,3-b]pyridin-4-yl)benzamide] | > 7.70
C[C@H]1C=C(c2cc(NC(=O)C3CC3)nc3[nH]ccc23)CCN1C(=O)CC#N [Example 390, (S)—N-(4-(1-(2-cyanoacetyl)-6-methyl-1,2,3,6-tetrahydropyridin-4-yl)-1H-pyrrolo[2,3-b]pyridin-6-yl)cyclopropanecarboxamide] | > 7.70
CC1CN(C(=O)c2ccc(-c3ccc(F)cc3F)[nH]c2=O)CC=C1c1cc(NC(=O)C2CC2)nc2[nH]ccc12 (stereo not drawn) [Example 317, N-(4-(1-(6-(2,4-difluorophenyl)-2-oxo-1,2-dihydropyridine-3-carbonyl)-3-methyl-1,2,3,6-tetrahydropyridin-4-yl)-1H-pyrrolo[2,3-b]pyridin-6-yl)cyclopropanecarboxamide] | < 6.70
CCNC(=S)Nc1ccc(-c2cc(NC(=O)C3CC3)nc3[nH]ccc23)cc1 [Example 462, N-(4-(4-(3-ethylthioureido)phenyl)-1H-pyrrolo[2,3-b]pyridin-6-yl)cyclopropanecarboxamide] | 6.70 to 7.70
CN(C)C(=O)Cc1ccc(-c2cc(NC(=O)C3CC3)nc3[nH]ccc23)cc1 [Example 540, N-(4-(4-(2-(dimethylamino)-2-oxoethyl)phenyl)-1H-pyrrolo[2,3-b]pyridin-6-yl)cyclopropanecarboxamide] | 6.70 to 7.70
CC1CN(C(=O)c2ccc(F)cc2Cl)CC=C1c1cc(NC(=O)C2CC2)nc2[nH]ccc12 (stereo not drawn) [Example 355, N-(4-(1-(2-chloro-4-fluorobenzoyl)-3-methyl-1,2,3,6-tetrahydropyridin-4-yl)-1H-pyrrolo[2,3-b]pyridin-6-yl)cyclopropanecarboxamide] | 6.70 to 7.70
O=C(Nc1cc(-c2ccc(NS(=O)(=O)CC3CCCCC3)c(F)c2)c2cc[nH]c2n1)C1CC1 [Example 70, N-(4-(4-((cyclohexylmethyl)sulfonamido)-3-fluorophenyl)-1H-pyrrolo[2,3-b]pyridin-6-yl)cyclopropanecarboxamide] | 6.70 to 7.70
CN1CCC(C(=O)N2CC=C(c3cc(NC(=O)C4CC4)nc4[nH]ccc34)CC2)C1 (stereo not drawn) [Example 280, N-(4-(1-(1-methylpyrrolidine-3-carbonyl)-1,2,3,6-tetrahydropyridin-4-yl)-1H-pyrrolo[2,3-b]pyridin-6-yl)cyclopropanecarboxamide] | < 6.70
O=C(Nc1cc(C2=CCC(NC3CCN(C(=O)C4CCCCC4)CC3)CC2)c2cc[nH]c2n1)C1CC1 (stereo not drawn) [Example 492, N-(4-(4-((1-(cyclohexanecarbonyl)piperidin-4-yl)amino)cyclohex-1-en-1-yl)-1H-pyrrolo[2,3-b]pyridin-6-yl)cyclopropanecarboxamide] | < 6.70
O=C(Nc1cc(C2=CCN(C(=O)CN3CCS(=O)(=O)CC3)CC2)c2cc[nH]c2n1)C1CC1 [Example 251, N-(4-(1-(2-(1,1-dioxidothiomorpholino)acetyl)-1,2,3,6-tetrahydropyridin-4-yl)-1H-pyrrolo[2,3-b]pyridin-6-yl)cyclopropanecarboxamide] | 6.70 to 7.70
O=C(Nc1nc(-c2ccc(CNc3cccc(F)c3)cc2)c2nc[nH]c2n1)C1CC1 [Example 598, N-(6-(4-(((3-fluorophenyl)amino)methyl)phenyl)-9H-purin-2-yl)cyclopropanecarboxamide] | < 6.70
